In US20130217664A1, “NOVEL COMPOUNDS USEFUL FOR THE TREATMENT OF DEGENERATIVE AND INFLAMMATORY DISEASES” (priority 2012, published 2013):

Legend:
human JAK1 = target: T1, human JAK1 (Homo sapiens, UniProt P23458); test: JAK1 inhibition assay (polyGT substrate / Ulight-JAK1 peptide); format: biochemical; details: recombinant human JAK1 catalytic domain; polyGT or Ulight-JAK1 peptide assay
T1 construct: catalytic domain, amino acids 866-1154; catalog number PV4774; purchased Invitrogen PV4774
Outline: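 Two formats. PolyGT radiometric: 45 min at 30 °C, stopped with phosphoric acid, counted as cpm. Ulight-JAK1 peptide: 60 min at room temperature, stopped with Eu-anti-phosphotyrosine/EDTA, read as RFU. Percent inhibition normalised to vehicle and 10 μM staurosporine.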

human JAK2 = target: T2, human JAK2 (Homo sapiens, UniProt O60674); test: JAK2 inhibition assay (polyGT substrate / Ulight-JAK1 peptide); format: biochemical; details: recombinant human JAK2 catalytic domain; polyGT or Ulight-JAK1 peptide assay
T2 construct: catalytic domain (amino acids 808-1132; catalog number PV4210); GST; purchased Invitrogen PV4210
Method: 1.2 JAK2 Inhibition Assay
1.2.1 JAK2 Assay polyGT Substrate
0.025 mU of JAK2 is incubated with 2.5 μg polyGT substrate (Sigma catalog number P0275) in kinase reaction buffer (5 mM MOPS pH 7.5, 9 mM MgAc, 0.3 mM EDTA, 0.06% Brij and 0.6 mM DTT, 1 μM non-radioactive ATP, 0.25 μCi ^33P-gamma-ATP (GE Healthcare, catalog number AH9968) final concentrations) with or without 5 μL containing test compound or vehicle (DMSO, 1% final concentration), in a total volume of 25 μL, in a polypropylene 96-well plate (Greiner, V-bottom). After 90 min at 30° C., reactions are stopped by adding of 25 μL/well of 150 mM phosphoric acid. […] Plates are washed 6 times with 300 μL per well of a 75 mM phosphoric acid solution and the bottom of the plates is sealed. 40 μL/well of Microscint-20 is added, the top of the plates is sealed and readout is performed using the Topcount (Perkin Elmer). Kinase activity is calculated by subtracting counts per min (cpm) obtained in the presence of a positive control inhibitor (10 μM staurosporine) from cpm obtained in the presence of vehicle. The ability of a test compound to inhibit this activity is determined as:
Percentage inhibition=((cpm determined for sample with test compound present−cpm determined for sample with positive control inhibitor)divided by(cpm determined in the presence of vehicle−cpm determined for sample with positive control inhibitor))*100.
Dose dilution series are prepared for the compounds enabling the testing of dose-response effects in the JAK2 assay and the calculation of the IC50 for each compound.
1.2.2 JAK2 Ulight-JAK1 Peptide Assay
After 60 min at room temperature, reactions were stopped by adding 20 μL/well of detection mixture (1× detection buffer (Perkin Elmer, catalog number CR97-100C), 0.5 nM Europium-anti-phosphotyrosine (PT66) (Perkin Elmer, catalog number AD0068), 10 mM EDTA). […] Kinase activity was calculated by subtracting relative fluorescence units (RFU) obtained in the presence of a positive control inhibitor (10 μM staurosporine) from RFU obtained in the presence of vehicle. The ability of a test compound to inhibit this activity was determined as:
Percentage inhibition=((RFU determined for sample with test compound present−RFU determined for sample with positive control inhibitor)divided by(RFU determined in the presence of vehicle−RFU determined for sample with positive control inhibitor))*100.
Dose dilution series are prepared for compound enabling the testing of dose-response effects in the JAK2 assay and the calculation of the IC50 for the compound. Each compound is routinely tested at concentration of 20 μM followed by a 1/5 serial dilution, 10 points in a final concentration of 1% DMSO. […] The data are expressed as the average IC50 from the assays±standard error of the mean.

T1 sequence (P23458 866-1154): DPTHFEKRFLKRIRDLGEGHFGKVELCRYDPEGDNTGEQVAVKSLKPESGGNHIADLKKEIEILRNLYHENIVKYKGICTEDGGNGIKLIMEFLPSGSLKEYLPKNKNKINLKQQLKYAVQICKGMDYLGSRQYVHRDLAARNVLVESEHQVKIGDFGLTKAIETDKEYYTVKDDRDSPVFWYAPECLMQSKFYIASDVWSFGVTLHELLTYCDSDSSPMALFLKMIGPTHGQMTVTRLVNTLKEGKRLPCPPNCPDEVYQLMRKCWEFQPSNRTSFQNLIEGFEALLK
T2 sequence (O60674 808-1132): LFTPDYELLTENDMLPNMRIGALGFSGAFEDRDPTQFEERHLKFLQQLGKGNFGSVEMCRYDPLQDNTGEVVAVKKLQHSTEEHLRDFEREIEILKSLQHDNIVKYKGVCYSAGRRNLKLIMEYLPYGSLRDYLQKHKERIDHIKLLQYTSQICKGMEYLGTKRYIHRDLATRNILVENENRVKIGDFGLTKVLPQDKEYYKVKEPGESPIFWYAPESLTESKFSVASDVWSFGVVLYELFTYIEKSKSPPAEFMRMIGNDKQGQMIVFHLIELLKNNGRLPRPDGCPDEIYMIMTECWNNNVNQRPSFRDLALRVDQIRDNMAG

IC50 (human JAK1)	IC50 (human JAK2)	Compound
101 to 500 nM	> 1000 nM	Cc1cc(OCc2ccccc2)ccc1N(C)c1cc2c(cn1)ncn2C [Compound 53, N-(4-(benzyloxy)-2-methylphenyl)-N,1-dimethyl-1H-imidazo[4,5-c]pyridin-6-amine]
501 to 1000 nM	> 1000 nM	Cc1cc(OCc2ccc(Cl)cc2)ccc1N(C)c1cc2c(cn1)ncn2C [Compound 54, N-(4-(4-chlorobenzyloxy)-2-methylphenyl)-N,1-dimethyl-1H-imidazo[4,5-c]pyridin-6-amine]
> 1000 nM	> 1000 nM	Cc1ccc(OCCN2CCCC2)cc1N(C)c1cc2c(cn1)ncn2C [Compound 58, N,1-dimethyl-N-(2-methyl-5-(2-(pyrrolidin-1-yl)ethoxy)phenyl)-1H-imidazo[4,5-c]pyridin-6-amine]
101 to 500 nM	> 1000 nM	Cc1ccc(OCC(=O)N(C)C)cc1N(C)c1cc2c(cn1)ncn2C [Compound 59, N,N-dimethyl-2-(4-methyl-3-(methyl(1-methyl-1H-imidazo[4,5-c]pyridin-6-yl)amino)phenoxy)acetamide]
> 1000 nM	> 1000 nM	Cc1c(OCC(=O)N(C)C)cccc1N(C)c1cc2c(cn1)ncn2C [Compound 65, N,N-dimethyl-2-(2-methyl-3-(methyl(1-methyl-1H-imidazo[4,5-c]pyridin-6-yl)amino)phenoxy)acetamide]
101 to 500 nM	> 1000 nM	Cc1c(OCCCC#N)cccc1N(C)c1cc2c(cn1)ncn2C [Compound 66, 4-(2-methyl-3-(methyl(1-methyl-1H-imidazo[4,5-c]pyridin-6-yl)amino)phenoxy)butane nitrile]
101 to 500 nM	> 1000 nM	Cc1c(OCc2cccnc2)cccc1N(C)c1cc2c(cn1)ncn2C [Compound 69, N,1-dimethyl-N-(2-methyl-3-(pyridin-3-ylmethoxy)phenyl)-1H-imidazo[4,5-c]pyridin-6-amine]
501 to 1000 nM	> 1000 nM	COc1ccc(Cc2ccc(N(C)c3cc4c(cn3)ncn4C)c(C)c2)cc1 [Compound 74, N-(4-(4-methoxybenzyl)-2-methylphenyl)-N,1-dimethyl-1H-imidazo[4,5-c]pyridin-6-amine]
501 to 1000 nM	501 to 1000 nM	Cc1c(OCc2ccccc2)cccc1N(C)c1cc2c(cn1)ncn2C [Compound 75, N-(3-(benzyloxy)-2-methylphenyl)-N,1-dimethyl-1H-imidazo[4,5-c]pyridin-6-amine]
> 1000 nM	> 1000 nM	Cc1c(OCc2ccc(Cl)cc2)cccc1N(C)c1cc2c(cn1)ncn2C [Compound 76]
> 1000 nM	> 1000 nM	Cc1c(OCCN2CCCC2)cccc1N(C)c1cc2c(cn1)ncn2C [Compound 77, N,1-dimethyl-N-(2-methyl-3-(2-(pyrrolidin-1-yl)ethoxy)phenyl)-1H-imidazo[4,5-c]pyridin-6-amine]
101 to 500 nM	> 1000 nM	CCc1ccncc1N(C)c1cc2c(cn1)ncn2C [Compound 78, N-(4-ethylpyridin-3-yl)-N,1-dimethyl-1H-imidazo[4,5-c]pyridin-6-amine]
> 1000 nM	> 1000 nM	CCc1ncccc1N(C)c1cc2c(cn1)ncn2C [Compound 79, N-(2-ethylpyridin-3-yl)-N,1-dimethyl-1H-imidazo[4,5-c]pyridin-6-amine]
101 to 500 nM	> 1000 nM	CCc1ccc(C(=O)N(C)C)cc1N(C)c1cc2c(cn1)ncn2C [Compound 87, 4-Ethyl-N,N-dimethyl-3-(methyl(1-methyl-1H-imidazo[4,5-c]pyridin-6-yl)amino)benzamide]
101 to 500 nM	> 1000 nM	Cc1cc(Oc2ccc(C#N)nc2)ccc1N(C)c1cc2c(cn1)ncn2C [Compound 88, 5-(3-methyl-4-(methyl(1-methyl-1H-imidazo[4,5-c]pyridin-6-yl)amino)phenoxy)picolino-nitrile]
101 to 500 nM	> 1000 nM	Cc1c(Oc2ccc(C#N)nc2)cccc1N(C)c1cc2c(cn1)ncn2C [Compound 90, 5-(2-methyl-3-(methyl(1-methyl-1H-imidazo[4,5-c]pyridin-6-yl)amino)phenoxy)picolino-nitrile]
> 1000 nM	> 1000 nM	CCc1c(C(=O)OC)cccc1N(C)c1cc2c(cn1)ncn2C [Compound 96, methyl 2-ethyl-3-(methyl(1-methyl-1H-imidazo[4,5-c]pyridin-6-yl)amino)benzate]
101 to 500 nM	> 1000 nM	Cc1c(OCc2ccc(C#N)nc2)cccc1N(C)c1cc2c(cn1)ncn2C [Compound 97, 5-((2-methyl-3-(methyl(1-methyl-1H-imidazo[4,5-c]pyridin-6-yl)amino)phenoxy)methyl) picolinonitrile]
101 to 500 nM	> 1000 nM	CCc1cc(C(=O)NCCc2ccccc2)ccc1N(C)c1cc2c(cn1)ncn2C [Compound 99, 3-ethyl-4-(methyl(1-methyl-1H-imidazo[4,5-c]pyridin-6-yl)amino)-N-phenethylbenzamide]
501 to 1000 nM	> 1000 nM	CCc1cc(C(=O)N2CCN(C)CC2)ccc1N(C)c1cc2c(cn1)ncn2C [Compound 100, (3-ethyl-4-(methyl(1-methyl-1H-imidazo[4,5-c]pyridin-6-yl)amino)phenyl)(4-methylpiperazin-1-yl)methanone]
> 1000 nM	> 1000 nM	CCc1cc(C(=O)N2CCS(=O)(=O)CC2)ccc1N(C)c1cc2c(cn1)ncn2C [Compound 104, (1,1-Dioxothiomorpholin-4-yl)-{3-ethyl-4-[methyl-(1-methyl-1H-imidazo[4,5-c]pyridin-6-yl)-amino]-phenyl}-methanone]
> 1000 nM	> 1000 nM	CCc1cc(C(=O)N2CCC(N(C)C)C2)ccc1N(C)c1cc2c(cn1)ncn2C (stereo not shown) [Compound 106, (3-(dimethylamino)pyrrolidin-1-yl)(3-ethyl-4-(methyl(1-methyl-1H-imidazo[4,5-c]pyridin-6-yl)amino)phenyl)methanone]
101 to 500 nM	> 1000 nM	CCc1ccc(C(N)=O)cc1N(C)c1cc2c(cn1)ncn2C [Compound 108, 4-ethyl-3-(methyl(1-methyl-1H-imidazo[4,5-c]pyridin-6-yl)amino)benzamide]
101 to 500 nM	> 1000 nM	CCc1ccc(CO)cc1N(C)c1cc2c(cn1)ncn2C [Compound 109, (4-Ethyl-3-(methyl(1-methyl-1H-imidazo[4,5-c]pyridin-6-yl)amino)phenyl)MeOH]
> 1000 nM	> 1000 nM	CCc1cc(C(=O)N2CCC(OC)CC2)ccc1N(C)c1cc2c(cn1)ncn2C [Compound 112, (3-ethyl-4-(methyl(1-methyl-1H-imidazo[4,5-c]pyridin-6-yl)amino)phenyl)(4-methoxypiperidin-1-yl)methanone]
> 1000 nM	> 1000 nM	CCc1cc(C(=O)N2CC(C)(C)C2)ccc1N(C)c1cc2c(cn1)ncn2C [Compound 113, (3,3-dimethylazetidin-1-yl)(3-ethyl-4-(methyl(1-methyl-1H-imidazo[4,5-c]pyridin-6-yl)amino)phenyl)methanone]
101 to 500 nM	> 1000 nM	CCc1ccc(C(=O)NCCOC)cc1N(C)c1cc2c(cn1)ncn2C [Compound 116, 4-Ethyl-N-(2-methoxyethyl)-3-(methyl(1-methyl-1H-imidazo[4,5-c]pyridin-6-yl)amino)benzamide]
101 to 500 nM	> 1000 nM	CCc1cc(C(=O)N2CCOCC2)ccc1N(C)c1cc2c(cn1)ncn2C [Compound 117, (3-ethyl-4-(methyl(1-methyl-1H-imidazo[4,5-c]pyridin-6-yl)amino)phenyl)(morpho-lino)methanone]

Compound	IC50 (human JAK1)	IC50 (human JAK2)
Cc1c(OCC(C)C)cccc1N(C)c1cc2c(cn1)ncn2C [Compound 70, N-(3-isobutoxy-2-methylphenyl)-N,1-dimethyl-1H-imidazo[4,5-c]pyridin-6-amine]	101 to 500 nM	501 to 1000 nM
